ChEMBL document CHEMBL1201862, “PubChem BioAssay data set” (2004)
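96-well plates; 48 h exposure; 5 concentrations. Endpoints by linear interpolation between flanking doses. Not reached: highest tested concentration assigned. The concentration for 50% growth inhibition is given as GI50.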 The source made the active and inactive calls. No stated cut-off is given here; in the data, active = GI50 up to about 1.1 µM and inactive = higher.

What was measured:
Test in all cases: inhibition of tumour cell growth, NCI panel, 48 h
[1] = tested on: 786-0
[2] = tested on: A498
[3] = tested on: A549
[4] = tested on: ACHN
[5] = tested on: BT-549
[6] = tested on: CCRF-CEM
[7] = tested on: COLO 205
[8] = tested on: DU-145
[9] = tested on: EKVX
[10] = tested on: HCC 2998
[11] = tested on: HCT-116
[12] = tested on: HCT-15
[13] = tested on: HL-60
[14] = tested on: HOP-62
[15] = tested on: HOP-92
[16] = tested on: HT-29
[17] = tested on: IGROV-1
[18] = tested on: K562
[19] = tested on: LOX IMVI
[20] = tested on: M14
[21] = tested on: MCF7
[22] = tested on: MDA-MB-231
[23] = tested on: MDA-MB-435
[24] = tested on: MDA-N
[25] = tested on: MOLT-4
[26] = tested on: Malme-3M
[27] = tested on: NCI-H226
[28] = tested on: NCI-H23
[29] = tested on: NCI-H460
[30] = tested on: NCI/ADR-RES
[31] = tested on: OVCAR-3
[32] = tested on: OVCAR-4
[33] = tested on: OVCAR-5
[34] = tested on: OVCAR-8
[35] = tested on: PC-3
[36] = tested on: RPMI-8226
[37] = tested on: SF-268
[38] = tested on: SF-295
[39] = tested on: SK-MEL-28
[40] = tested on: SK-MEL-5
[41] = tested on: SK-OV-3
[42] = tested on: SN12C
[43] = tested on: SNB-19
[44] = tested on: SNB-75
[45] = tested on: SR
[46] = tested on: SW-620
[47] = tested on: T47D
[48] = tested on: TK-10
[49] = tested on: U-251
[50] = tested on: UACC-257
[51] = tested on: UACC-62
[52] = tested on: UO-31
[53] = tested on: CAKI-1
[54] = tested on: Hs-578T
[55] = tested on: KM12
[56] = tested on: NCI-H522
[57] = tested on: RXF 393
[58] = tested on: SF-539
[59] = tested on: SK-MEL-2

CN(C)/C=[N+]1/[C@@H](Cc2ccccc2)C(=O)O[B-]1(F)c1ccccc1 (stereo partly drawn)
GI50 [1]: > 100 µM (inactive) | GI50 [2]: > 100 µM (inactive) | GI50 [3]: > 100 µM (inactive) | GI50 [4]: > 100 µM (inactive) | GI50 [5]: > 100 µM (inactive) | GI50 [6]: > 100 µM (inactive) | GI50 [7]: > 100 µM (inactive) | GI50 [8]: > 100 µM (inactive) | GI50 [9]: > 100 µM (inactive) | GI50 [10]: > 100 µM (inactive) | GI50 [11]: > 100 µM (inactive) | GI50 [12]: > 100 µM | GI50 [13]: > 100 µM (inactive) | GI50 [14]: > 100 µM (inactive) | GI50 [15]: > 100 µM (inactive) | GI50 [16]: > 100 µM (inactive) | GI50 [17]: > 100 µM (inactive) | GI50 [18]: > 100 µM (inactive) | GI50 [19]: > 100 µM (inactive) | GI50 [20]: > 100 µM (inactive) | GI50 [21]: > 100 µM (inactive) | GI50 [22]: > 100 µM (inactive) | GI50 [23]: > 100 µM (inactive) | GI50 [24]: > 100 µM (inactive) | GI50 [25]: > 100 µM (inactive) | GI50 [26]: > 100 µM (inactive) | GI50 [27]: > 100 µM (inactive) | GI50 [28]: > 100 µM (inactive) | GI50 [29]: > 100 µM (inactive) | GI50 [30]: > 100 µM (inactive) | GI50 [31]: > 100 µM (inactive) | GI50 [32]: > 100 µM (inactive) | GI50 [33]: > 100 µM (inactive) | GI50 [34]: > 100 µM (inactive) | GI50 [35]: > 100 µM (inactive) | GI50 [36]: > 100 µM (inactive) | GI50 [37]: > 100 µM (inactive) | GI50 [38]: > 100 µM (inactive) | GI50 [39]: > 100 µM (inactive) | GI50 [40]: > 100 µM (inactive) | GI50 [41]: > 100 µM (inactive) | GI50 [42]: > 100 µM (inactive) | GI50 [43]: > 100 µM (inactive) | GI50 [44]: > 100 µM (inactive) | GI50 [45]: > 100 µM (inactive) | GI50 [46]: > 100 µM (inactive) | GI50 [47]: > 100 µM (inactive) | GI50 [48]: > 100 µM (inactive) | GI50 [49]: > 100 µM (inactive) | GI50 [50]: > 100 µM (inactive) | GI50 [51]: > 100 µM (inactive) | GI50 [52]: > 100 µM (inactive)

O=C(CC(=O)N1N=C(N(c2ccccc2)c2ccccc2)CC1c1ccccc1)Nc1ccc(Cl)cc1 (stereo not drawn)
GI50 [1]: > 100 µM (inactive) | GI50 [3]: > 100 µM (inactive) | GI50 [4]: > 100 µM (inactive) | GI50 [5]: > 100 µM (inactive) | GI50 [53]: > 100 µM (inactive) | GI50 [6]: > 100 µM (inactive) | GI50 [7]: > 100 µM (inactive) | GI50 [8]: > 100 µM (inactive) | GI50 [9]: > 100 µM (inactive) | GI50 [10]: > 100 µM (inactive) | GI50 [11]: > 100 µM (inactive) | GI50 [12]: > 100 µM | GI50 [13]: > 100 µM (inactive) | GI50 [14]: > 100 µM (inactive) | GI50 [15]: > 100 µM (inactive) | GI50 [16]: > 100 µM (inactive) | GI50 [54]: > 100 µM (inactive) | GI50 [17]: > 100 µM (inactive) | GI50 [18]: > 100 µM (inactive) | GI50 [55]: > 100 µM (inactive) | GI50 [20]: > 100 µM (inactive) | GI50 [21]: > 100 µM (inactive) | GI50 [22]: > 100 µM (inactive) | GI50 [23]: > 100 µM (inactive) | GI50 [25]: > 100 µM (inactive) | GI50 [27]: > 100 µM (inactive) | GI50 [28]: > 100 µM (inactive) | GI50 [29]: > 100 µM (inactive) | GI50 [56]: > 100 µM (inactive) | GI50 [30]: > 100 µM (inactive) | GI50 [31]: > 100 µM (inactive) | GI50 [32]: > 100 µM (inactive) | GI50 [33]: > 100 µM (inactive) | GI50 [34]: > 100 µM (inactive) | GI50 [35]: > 100 µM (inactive) | GI50 [36]: > 100 µM (inactive) | GI50 [57]: > 100 µM (inactive) | GI50 [37]: > 100 µM (inactive) | GI50 [38]: > 100 µM (inactive) | GI50 [58]: > 100 µM (inactive) | GI50 [39]: > 100 µM (inactive) | GI50 [59]: > 100 µM (inactive) | GI50 [40]: > 100 µM (inactive) | GI50 [41]: > 100 µM (inactive) | GI50 [42]: > 100 µM (inactive) | GI50 [43]: > 100 µM (inactive) | GI50 [44]: 94 µM (inactive) | GI50 [45]: > 100 µM (inactive) | GI50 [46]: > 100 µM (inactive) | GI50 [47]: > 100 µM (inactive) | GI50 [48]: > 100 µM (inactive) | GI50 [49]: > 100 µM (inactive) | GI50 [50]: > 100 µM (inactive) | GI50 [51]: > 100 µM (inactive) | GI50 [52]: > 100 µM (inactive)

CCOP(=O)(OCC)/C(C#N)=C/c1cn(C)cn1
GI50 [2]: > 100 µM (inactive) | GI50 [3]: > 100 µM (inactive) | GI50 [4]: > 100 µM (inactive) | GI50 [5]: > 100 µM (inactive) | GI50 [53]: > 100 µM (inactive) | GI50 [6]: > 100 µM (inactive) | GI50 [7]: > 100 µM (inactive) | GI50 [9]: > 100 µM (inactive) | GI50 [10]: > 100 µM (inactive) | GI50 [12]: > 100 µM | GI50 [14]: > 100 µM (inactive) | GI50 [15]: > 100 µM (inactive) | GI50 [16]: > 100 µM (inactive) | GI50 [17]: > 100 µM (inactive) | GI50 [18]: > 100 µM (inactive) | GI50 [55]: > 100 µM (inactive) | GI50 [20]: > 100 µM (inactive) | GI50 [21]: > 100 µM (inactive) | GI50 [22]: > 100 µM (inactive) | GI50 [23]: > 100 µM (inactive) | GI50 [24]: > 100 µM (inactive) | GI50 [25]: > 10 µM (inactive) | GI50 [26]: > 100 µM (inactive) | GI50 [27]: > 100 µM (inactive) | GI50 [28]: > 100 µM (inactive) | GI50 [29]: > 100 µM (inactive) | GI50 [56]: > 100 µM (inactive) | GI50 [30]: > 100 µM (inactive) | GI50 [31]: > 100 µM (inactive) | GI50 [32]: > 100 µM (inactive) | GI50 [33]: > 100 µM (inactive) | GI50 [34]: > 100 µM (inactive) | GI50 [35]: > 100 µM (inactive) | GI50 [57]: > 100 µM (inactive) | GI50 [37]: > 100 µM (inactive) | GI50 [38]: > 100 µM (inactive) | GI50 [58]: > 100 µM (inactive) | GI50 [39]: > 100 µM (inactive) | GI50 [59]: > 100 µM (inactive) | GI50 [40]: > 10 µM (inactive) | GI50 [41]: > 100 µM (inactive) | GI50 [42]: > 100 µM (inactive) | GI50 [43]: > 100 µM (inactive) | GI50 [44]: > 100 µM (inactive) | GI50 [45]: > 100 µM (inactive) | GI50 [46]: > 100 µM (inactive) | GI50 [48]: > 100 µM (inactive) | GI50 [49]: > 100 µM (inactive) | GI50 [50]: > 100 µM (inactive) | GI50 [51]: > 100 µM (inactive) | GI50 [52]: > 100 µM (inactive)
